Active and inactive are the calls of the source. The rule behind the calls is not given here.
Columns and labels:
[1] = Her2 expression suppression with viability readout – cell-based, AlphaScreen, CellTiter-Glo viability, dose response (AID 742); details: human cells, Her2 expression AlphaScreen; CTG viability; at 9.62 µM (top of the series)
[2] = tested on: human cells, Her2 expression AlphaScreen; CTG viability; assay: as above; details: viability, CellTiter-Glo

Row | SMILES | Her2 inhibition [1] | EC50 [2] [µM]
1 | CC1CC(C)(C)Nc2ccc(OC(=O)c3ccco3)cc21 (stereo not drawn) | -5.22% (inactive) | > 9.62
2 | CCOC(=O)C(NC(C)=O)(N1CCc2ccccc2C1)C(F)(F)F (stereo not drawn) | -13.1% (inactive) | > 9.62
3 | Cn1c(SC2=CS(=O)(=O)c3ccccc32)nc2ccccc21 | 44.8% (inactive) | > 9.62
4 | O=C(NCc1cccs1)c1nc2c(nnn2Cc2ccccc2Cl)c(=O)[nH]1 | 45.2% (inactive) | > 9.62
5 | O=S1(=O)Nc2c(ccc3cccnc23)-c2ccccc21 | 12.6% (inactive) | > 9.62
6 | c1ccc(CNC2=NCCC2)nc1 | -3.59% (inactive) | > 9.62
7 | COc1ccc(CSc2nnnn2Cc2ccccc2)cc1OC | -31.4% (inactive) | > 9.62
8 | O=S(=O)(c1ccc2c(c1)C(=NO)c1cc(S(=O)(=O)N3CCCCC3)ccc1-2)N1CCCCC1 | 27.4% (inactive) | < 0.024
9 | CC(C)N1CCC2(CC1)N=C(c1ccc3c(c1)OCO3)CC(c1cc(Cl)ccc1O)N2 (stereo not drawn) | 20.5% (inactive) | > 9.62
10 | Cc1ccc2[nH]cc(C(=O)CN3CCN(c4ccccn4)CC3)c2c1 | -23.7% (inactive) | > 9.62
11 | c1ccc(Cc2nn3c(COc4ccccc4)nnc3s2)cc1 | -17.6% (inactive) | > 9.62
12 | CC1(C)CC(=O)NC=C(c2ccccc2)C1 | 0.71% (inactive) | > 9.62
13 | O=C1C2=C(SCCS2)C(=O)N1CCCO | -25% (inactive) | > 9.62
14 | CCOC(=O)c1c(C)[nH]c(C(=O)OC/C(O)=C(\C#N)c2nc3ccccc3[nH]2)c1C | 16.6% (inactive) | > 9.62
15 | O=C(Cc1cscn1)c1ccc(O)cc1O | 3.58% (inactive) | > 9.62
16 | CC1(C)CC(=O)C2=C(C1)OC1=C(C(=O)CC(C)(C)C1)C2c1ccc(O)cc1O | 10.8% (inactive) | > 9.62
17 | Cn1cnc2c1c(=O)[nH]c(=O)n2C | -20.9% (inactive) | > 9.62
18 | CCOC(=O)Cc1csc(NC(=O)COc2ccc(OC)cc2)n1 | -22.7% (inactive) | > 9.62
19 | COc1ccc(OCC(=O)NCc2cccnc2)cc1 | -22.7% (inactive) | > 9.62
20 | C1CCC(C(CC2CCCCN2)C2CCCCC2)CC1 (stereo not drawn) | -33.2% (inactive) | > 9.62
21 | CNCCCC12CCC(c3ccccc31)c1ccccc12 | -11.5% (inactive) | > 9.62
22 | CC(C)NCC(O)Cn1c2c(c3ccccc31)CCc1c-2cnn1-c1ccccc1 (stereo not drawn) | 11.7% (inactive) | > 9.62
23 | COc1ccccc1-n1c(SCC(=O)NC(C)(C)C)nc(O)cc1=O | 8.19% (inactive) | > 9.62
24 | CCn1c(C)cc(=S)c2ccccc21 | -25.6% (inactive) | > 9.62
